Measured values: ChEMBL document CHEMBL5726799, “IRAK4 inhibiting agents” (2019)

Molecular target: T1, Interleukin-1 receptor-associated kinase 4 (Homo sapiens, UniProt Q9NWZ3)
T1 sequence (Q9NWZ3 whole entry): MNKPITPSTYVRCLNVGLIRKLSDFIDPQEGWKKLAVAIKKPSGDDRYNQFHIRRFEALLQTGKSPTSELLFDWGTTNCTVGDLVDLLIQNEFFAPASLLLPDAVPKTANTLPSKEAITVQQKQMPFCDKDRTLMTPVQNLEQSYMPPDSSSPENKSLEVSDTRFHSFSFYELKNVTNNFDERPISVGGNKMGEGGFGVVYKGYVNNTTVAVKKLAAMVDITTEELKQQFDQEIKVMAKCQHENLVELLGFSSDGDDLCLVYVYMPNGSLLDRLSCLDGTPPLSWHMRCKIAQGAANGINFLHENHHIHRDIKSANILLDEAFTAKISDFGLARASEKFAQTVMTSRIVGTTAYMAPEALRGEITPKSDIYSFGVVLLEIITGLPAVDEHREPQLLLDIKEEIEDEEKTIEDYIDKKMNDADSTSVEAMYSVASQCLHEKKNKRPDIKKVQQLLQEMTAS
Test: Biochemical Assay: The biochemical assay is in a AlphaScreen format. The kinase reaction is based on the IRAK-4 phosphorylation of a biotin labeled peptide. The phosphopeptide is incubated with anti-phosphothreonine antibody as well as streptavidin- and protein A-coated beads. Binding of the protein-A coated beads to the antibody and the streptavidin beads to the peptide, leads to an energy transfer from one bead to the other, ultimately producing a luminescent/fluorescent signal.Generally, the kinase reaction is carried out at 1 nM IRAK4, 1.6 μM peptide, 1 mM ATP in reaction buffer 50 mM Hepes, 60 mM NaCl, 5 mM MgCl2, 0.25 mM MnCl2, 2 mM DTT, 0.01% BSA, 0.01% Tween-20) for 3.5 h at RT.

IC50 [nM] | Structure (SMILES)
< 100 | CCC[C@H](N)c1cccc(-c2cc(N3CCC3)c3cnn(-c4cccc(CO)n4)c3c2)n1
< 100 | CCc1cccc(-c2cc(-c3nnc(C)o3)c3cnn(-c4cccc(CO)n4)c3c2)n1
< 100 | CCC[C@H](N)c1cccc(-c2cc(N3CCOCC3)c3cnn(-c4cccc(CO)n4)c3c2)n1

Structure (SMILES) | IC50 [nM]
N#CCNC(=O)c1cc(N)cc(-c2ccc3cnn(-c4cccc(C(F)(F)F)n4)c3c2)c1 | < 100
